From EP0702683B1, “06-SUBSTITUTED GUANINE DERIVATIVES, A PROCESS FOR THEIR PREPARATION AND THEIR USE IN TREATING TUMOUR CELLS” (Cancer Research Technology Limited, priority 1993, dated 1994)
“Also recorded” adds a separate entry of the source. Read-outs that look alike come from different tables or passages of the source.

Key:
ATase [1] = molecular target: T1, ATase (Cricetulus griseus, UniProt P26186); assay: Inactivation of ATase activity in Hamster +120 cells; format: cell-based, Chinese hamster; conditions: 2 hours at 37°C, read-out: Inactivation of ATase in Mammalian Cells I50(µM) Hamster + 120
T1 construct: endogenous in cells; host or cells: Hamster +120 (V79 RJKO subline)
T1 sequence (P26186 1-209): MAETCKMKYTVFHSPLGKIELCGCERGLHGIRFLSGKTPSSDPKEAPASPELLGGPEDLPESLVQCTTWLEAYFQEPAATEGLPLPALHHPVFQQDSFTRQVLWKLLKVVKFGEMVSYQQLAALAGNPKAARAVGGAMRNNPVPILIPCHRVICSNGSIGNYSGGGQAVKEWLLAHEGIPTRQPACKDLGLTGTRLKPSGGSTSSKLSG
Procedure: (§1) Mammalian cells were cultured under standard conditions. For example, Raji (a human lymphoblastoid cell line from a Burkitt's lymphoma) cells were grown in suspension culture in RPMI medium supplemented with 10% horse serum. […]
(§2) Cells were diluted to 10^6/ml in culture medium containing either the appropriate concentration of inactivator or an equivalent volume of vehicle (DMSO). […] ATase activity was determined as described above, in duplicate sonicated cell extracts and expressed as the percentage activity remaining based on that present in the untreated controls (for example 350-450 fm/mg in Raji cells).

ATase [2] = molecular target: T2, ATase (Homo sapiens, UniProt P16455); assay: Inactivation of ATase activity in Raji cells; format: cell-based; set-up: endogenous in cells; host or cells: Raji
T2 sequence (P16455 1-207): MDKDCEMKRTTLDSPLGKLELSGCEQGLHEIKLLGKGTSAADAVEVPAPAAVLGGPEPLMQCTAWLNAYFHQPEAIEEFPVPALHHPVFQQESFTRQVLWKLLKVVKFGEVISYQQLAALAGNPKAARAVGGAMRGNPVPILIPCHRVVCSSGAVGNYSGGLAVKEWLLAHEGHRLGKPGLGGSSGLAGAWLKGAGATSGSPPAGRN
Procedure: (§3) Mammalian cells were cultured under standard conditions. For example, Raji (a human lymphoblastoid cell line from a Burkitt's lymphoma) cells were grown in suspension culture in RPMI medium supplemented with 10% horse serum. A375M cells are human melanoma cells from which the xenografts described below were established following subcutaneous injection into nude mice: WiDr cells are a human colon carcinoma cell line: Hamster+120 cells are a mitozolomide-selected subline of a Chinese hamster lung fibroblast V79 cell line called RJKO: Yoshida cells are a rat carcinosarcoma cell line and YRbus is a busulphan resistant subline thereof: XP cells are an SV40-transformed fibroblast cell line originally from the skin of a Xeroderma pigmentosum patient, pHMGhAT2b cells are a clone of these cells that have been transfected with a mammalian cell expression vector containing the human ATase cDNA and pHMGla cells are a clone that have been transfected with the expression vector only (i.e. one not containing the human ATase cDNA). Cell pellets were resuspended in cold (4°C) buffer I containing 2 µg/ml leupeptin and sonicated for 10 seconds at 12 µ peak to peak distance. After cooling in ice, the cells were sonicated for a further 10 seconds at 18 µ. Immediately after sonication, 0.01 volumes of 8.7 mg/ml phenylmethanesulphonylfluoride in ethanol was added and the sonicates centrifuged at 15 000 g for 10 minutes at 4°C to pellet cell debris. The supernatant was kept for determination of ATase activity (see below).
Cells were diluted to 10^6/ml in culture medium containing either the appropriate concentration of inactivator or an equivalent volume of vehicle (DMSO). Following incubation at 37°C for 2 hours the cells were harvested by centrifugation, washed twice with PBS and the resulting cell pellets (between 1-2 x 10^7 per pellet) stored at -20°C.

ATase [3] = molecular target: T2, ATase; assay: Inactivation of ATase activity in WiDr cells; format: cell-based; set-up: endogenous in cells; host or cells: Raji
Procedure: as §3, with “Immediately after sonication, 0.01 volumes of 8.7 mg/ml phenylmethanesulphonylfluoride in ethanol was added and the sonicates centrifuged at 15 000 g for 10 minutes at 4°C to pellet cell debris. The supernatant was kept for determination of ATase activity (see below).” left out

ATase [4] = molecular target: T2, ATase; assay: Inactivation of ATase activity in XP cells; format: cell-based; set-up: endogenous in cells; host or cells: Raji
Procedure: as §3, with “Immediately after sonication, 0.01 volumes of 8.7 mg/ml phenylmethanesulphonylfluoride in ethanol was added and the sonicates centrifuged at 15 000 g for 10 minutes at 4°C to pellet cell debris. The supernatant was kept for determination of ATase activity (see below).” left out

ATase [5] = assay: Inactivation of ATase in mammalian cells, summary over cell lines; format: cell-based; conditions: range over the cell lines of Table 5 (table head: µM; no unit in the sentence); read-out: I50 values for ATase inactivation in human, rat and Chinese hamster cells
Procedure: as §1, §2

[6] = Stability of inactivators at 37°C (spectrophotometric half life); format: physicochemical
Procedure: Inactivators (10mM in DMSO) were diluted to 0.1mM in prewarmed degassed buffer I (1mM EDTA, 50mM Tris pH 8.3) or PBS (pH 7-7.2). […] Samples were immediately transferred to a CARY13 spectrophotometer (cuvette block held at 37°C) and scanned at an appropriate wavelength (according to the spectral properties of the compound) at 3-10 minute intervals for up to 80 hours. The results were expressed as percentage absorbance change versus time and T1/2 values (half life) extrapolated from this.

[7] = system: Chinese hamster V79 cells; assay: Growth inhibition of V79 cells by inactivator alone; format: cell-based
Procedure: In order to assess the effects on cell growth alone, Xeroderma pigmentosum cells and Chinese Hamster V79 cells were exposed to increasing concentrations (up to 600µM) of selected inactivators for 2h at 37°. In some cases, the inactivators were allowed to undergo hydrolysis at 37°C for 20 hours and then added to […] in order to assess the extent to which the decomposition products of the agents might inhibit cell growth. After 6 days the extent of cell growth was determined as described above.

[8] = Toxicity of inactivator in combination with BCNU in xenograft-bearing mice (survival); format: in vivo, nude mice; conditions: Figs. 9-13, in words
Procedure: (§4) 0X6 OPT, England (OLAC mice). […] For this reason lower doses were administered.
Xenograft tumour measurements were taken every 1-2 days by workers using digital calipers. Tumour volume was calculated using the formula (h x w x 1) π/6. The experimental animals were also weighed every 1-2 days. Measurements continued until tumours in the control animals reached the maximum allowable volume (i.e. 1cm x 1cm x 1cm).

ATase [9] = assay: Depletion of ATase activity in A375 tumour xenografts; format: in vivo, nude mice; conditions: 30 mg/kg, 2 or 24 hours after administration, Fig. 8, in words
Procedure: as §4
A375M (human melanoma) cells were grown in DMEM containing 10% fetal bovine serum. The cells were prepared for in vivo inoculation by incubation with 0.01% trypsin.
Cells (10^6) in 100µl of PBS were injected subcutaneously into the right-hand flank of 8-10 week old nu/nu athymic mice. These cells were allowed to develop into a tumour for 3-4 weeks for passaging into experimental animals. Tumour blocks measuring 2mm x 2mm x 2mm were implanted subcutaneously on the right hand flank. These animals were ready for use in inactivator experiments in 7-10 days.

[10] = 0.1mM in PBS (pH 7-7.2), read-out: T1/2(h) in PBS (converted)
[11] = 0.1mM in buffer I (1mM EDTA, 50mM Tris pH 8.3), read-out: T1/2(h) in Buffer I (converted)

SMILES | IC50 (ATase [1]) | IC50 (ATase [2]) | IC50 (ATase [2]; Human Raji cells, 2 hours at 37°C (Table 5), read-out: Inactivation of ATase in Mammalian Cells I50(µM) Human Raji) | IC50 (ATase [3]; Human WiDr cells, 2 hours at 37°C, read-out: Inactivation of ATase in Mammalian Cells I50(µM) Human WiDr) | IC50 (ATase [4]; Human XP cells, 2 hours at 37°C, read-out: Inactivation of ATase in Mammalian Cells I50(µM) Human XP) | IC50 (ATase [5]) | half-life at 100 µM [6, 10] | half-life at 100 µM [6, 11] | toxic concentrations in V79 cells relative to those at which sensitization to BCNU was observed ([7]; Figs 5 & 6) | IC50 (ATase [2]; read-out: Inactivation of ATase in Mammalian Cells I50(µM) Human Raji, Human Raji cells, 2 hours at 37°C (Table 5)) | toxicity in combination with BCNU in nude mice [8] | inactivating ATase in human melanoma xenografts grown in nude mice, compared with BeG (ATase [9]) | IC50 (ATase [3]) | IC50 (ATase [4]) | doses producing some growth inhibition of V79 cells ([7]; inactivator alone, up to 600µM, 2h at 37°, Figure 5)
Nc1nc(OCc2ccco2)c2nc[nH]c2n1 [B.4203, O^6-furfurylguanine] | 0.12 µM | 0.04 µM | 0.04 µM | 0.08 µM | 0.06 µM | 0.04 to 0.12 µM | 0.17 h | 0.3 h | at least 100 times | – | – | – | – | – | –
Nc1nc(OCc2cccs2)c2nc[nH]c2n1 [B.4205, O^6-thenylguanine] | – | 0.02 µM | – | – | – | 0.02 to 0.03 µM | 0.6 h | 1.2 h | – | 0.02 µM | substantially less toxic; also recorded: very little effect | as effective as BeG | 0.02 µM | 0.03 µM | no such effects were seen
